Measurements published in patent US5753516A, “Screening method for ligands of the EBI-1 receptor” (priority 1995, dated 1998).
Entries after “also recorded” stand apart in the source; their conditions may differ.

Columns and labels:
EBI1 [1] = molecular target: T1, EBI1 (Homo sapiens, UniProt P32248)
T1 sequence (P32248 25-378): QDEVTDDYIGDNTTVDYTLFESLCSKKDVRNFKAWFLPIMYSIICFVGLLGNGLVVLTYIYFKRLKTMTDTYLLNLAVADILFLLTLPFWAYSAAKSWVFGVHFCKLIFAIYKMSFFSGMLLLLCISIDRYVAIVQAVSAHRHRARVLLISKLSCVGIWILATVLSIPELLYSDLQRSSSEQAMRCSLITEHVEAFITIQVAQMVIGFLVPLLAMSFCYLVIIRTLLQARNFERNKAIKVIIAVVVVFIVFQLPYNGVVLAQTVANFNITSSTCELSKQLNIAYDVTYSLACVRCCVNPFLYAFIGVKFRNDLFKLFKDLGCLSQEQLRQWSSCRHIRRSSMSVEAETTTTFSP
Excerpt: (§1) Data are plotted as the concentration of free ^3 H-DPDPE (x-axis) vs specific binding of ^3 H-DPDPE (y-axis).

NALM 6 cells [2] = type: binding, human
opiate μ-receptor = conditions: sub-antinociceptive doses; cited from earlier work
EBI1 [3] = molecular target: T1, EBI1; experiment: biochemical
Excerpt: as §1

NALM 6 cells [4] = experiment: Migration (chemotaxis) of NALM 6 pre-B ALL cells; type: cell-based, human; conditions: for % Response (with/without naloxone): 90 min, 10 µM
NALM 6 cells [5] = experiment: [Ca^2+ ]i response of NALM 6 / leukemia cells (Indo-1, flow cytometry); type: cell-based, human
Protocol: FIG. 15, Panels A-C. […] Cells were labeled with Indo-1 as previously described (Rabinovitch et al., 1986), washed twice in serum-free medium and held at 4° C. until flow cytometric analysis. The violet/blue fluorescence ratio was measured using previously described methods (Rabinovitch et al., 1986). Nonstimulated cells (measured in medium, alone) were used to establish a relative violet/blue ratio arbitrarily set at 1.0 as previously described (Rabinovitch). Calibration of [Ca^2+ ]i was carried out as previously described by Rabinovitch et al (1986) using the formula: [formula]
Rmax values were determined by measuring the maximum shift in indo violet/blue fluorescence for cells treated with 4 μM ionomycin. Rmin was measured as the minimum ratio for the violet blue fluorescence of ionomycin treated cells following the addition of 8 mM EGTA. […] The Kd (effective dissociation constant) was set at 250 nM.

in vitro = conditions: human, nalm 6 cells
COS (Vector Control) = experiment: cAMP accumulation in COS cells (vector control); type: cell-based, monkey; conditions: COS (Vector Control); MET-ENK 0.01 nM, naloxone 10 μM, forskolin 0.1 μM; controls 40.2 and 38.8
NALM 6 cells [6] = experiment: MET-ENK-FITC binding to NALM 6 cells (flow cytometry, Scatchard); design: species or system human; conditions: 5 μM naloxone
NALM 6 cells [7] = experiment: Light scatter analysis of morphological response of NALM 6 cells; type: cell-based, human
Protocol: FIG. 2, Panels A and B. Methionine-enkephalin induces a morphological change in NALM 6 cells. […] Analysis of forward and right angle light scatter was performed using a Becton Dickinson FACS SCAN flow cytometer as described (Sklar et al., 1984). Histograms of light scatter were obtained by analyzing 10,000 cells per sample. Data are expressed as mean channel number (y-axis) vs concentration of MET-ENK (x-axis).
Forward and right angle light scatter analysis of the morphological response to MET-ENK: The effect of MET-ENK on cell morphology were measured using flow cytometric analysis of forward and right angle light scatter as previously described (Sklar et al., 1984). For these studies 10^6 cells were resuspended in one-ml of PBS, activated by the addition of MET-ENK or maintained in the PBS buffer alone, and then, incubated for 5 minutes at 37° C. […] Samples were analyzed on a Becton Dickinson FACS SCAN flow cytometer with excitation at 488 nm (Sklar et al., 1984). Histograms of light scattering were obtained by analyzing 10,000 cells for each sample. Data analysis was performed using the Lysys System software package.

LAZ 221 cells = experiment: Flow cytometry of surface molecule expression on LAZ 221 cells; type: cell-based, human; conditions: LAZ 221, 100 fold excess of naloxone
Protocol: FIG. 4, Panels A-C. […] Data are presented as mean fluorescence intensities measured for 10,000 cells labeled with anti-CD9 or CD10 mAb. In Panel A, the NALM 6 Cells were incubated with MET-ENK (10^-7 M) for the times indicated. In Panel B, the LAZ 221 cells were incubated with MET-ENK at the doses indicated for 5 minutes at 37° C. […] The anti-CD9 and anti-CD10 mAb used for these experiments were of the IgG2a isotype.
Immunofluorescence Staining and Flow Cytometric Analysis of Cell Surface Molecules: Cells were resuspended at 1×10^6 /ml in PBS and then incubated for periods of 5 to 120 minutes at 37° C. with MET-ENK at doses of 0 to 10^-5 M. Incubations were terminated by transferring samples to an ice bath and then pelleting the cells by centrifugation at 1800 rpm for 5 minutes at 4° C.
Immunofluorescence staining was carried out in 4-ml tubes maintained in an ice water bath. […] Cells were subsequently fixed within a 2% solution of formalin and maintained in the dark at 10° C. until analyzed.
Flow cytometric analysis was performed using a FACS SCAN Flow Cytometer (Becton Dickinson, Mountain View, Calif.) equipped with a HP9000 Series computer and the Lysys System software analysis package. Data were collected as histograms depicting the fluorescence intensity for 5,000 to 10,000 cells per sample.
The non-binding IgG1 MOPC myeloma protein, anti-macrophage/monocyte specific CD14 (MO2; IgG2) and anti-T cell specific CD3 (OKT3; IgG2a) mAb were employed as nonreactive controls for measuring the autofluorescence of B cells.

human T cells [8] = experiment: Migration of human peripheral blood T cells; type: cell-based
EBI1 [9] = molecular target: T1, EBI1; conditions: COS (EBI 1); MET-ENK 0.01 nM, naloxone 10 μM, forskolin 0.1 μM; controls 61.2 and 63.5
human T cells [10] = conditions: Heagy et al., 1990; cited from earlier work
[11] = test system: freshly isolated lymphocytes and EBV transformed cell lines; conditions: Borboni et al., 1989; cited from earlier work
[12] = test system: lymphocytes and macrophages; conditions: injection into cerebroventricles of rodents; cited from earlier work
PMN = conditions: Falke and Fischer, 1985; cited from earlier work
PBMC = conditions: cited from earlier work

## CC1(C)SSC(C)(C)[C@@H](NC(=O)[C@@H](N)Cc2ccc(O)cc2)C(=O)NCC(=O)N[C@@H](Cc2ccccc2)C(=O)N[C@H]1C(=O)O [DPDPE, [D-Pen^2,5]enkephalin]
EBI1 [1]
  binding to membranes of COS cells expressing lymphocyte R7G: specific, high affinity binding
Jurkat cells
  specific binding, % of total: 50-60%
NALM 6 cells [2]
  specific binding, % of total: 50-80%
Opiate μ-receptor
  effect on morphine antinociception: enhance the antinociception mediated via the opiate μ-receptor agonist morphine
EBI1 [3]
  Kd: 0.2 nM

## C=CCN1CC[C@]23c4c5ccc(O)c4O[C@H]2C(=O)CC[C@@]3(O)[C@H]1C5 [Naloxone]
NALM 6 cells [4]; MET-ENK 1 nM, naloxone 10^-5 M
  % Response (with/without naloxone): 43%
NALM 6 cells [4]; MET-ENK 100 nM, naloxone 10^-5 M
  % Response (with/without naloxone): 42%
NALM 6 cells [4]; migration to MET-ENK or spontaneous locomotion
  effect of naloxone on NALM 6 migration: inhibited the migration of NALM 6 cells to MET-ENK; also recorded: Spontaneous locomotion resulting from the random movement of unchallenged cells was equivalent for naloxone treated and nontreated cells
NALM 6 cells [4]; naloxone 10^-5 M, MET-ENK 100 nM
  cell counts, migration to MET-ENK with naloxone: 1476 cell counts
NALM 6 cells [4]; naloxone 10^-5 M, no MET-ENK, without naloxone 1647
  cell counts, spontaneous locomotion with naloxone: 1350 cell counts
NALM 6 cells [4]; spontaneous locomotion, naloxone 10^-5 M
  % Response (with/without naloxone): 82%
NALM 6 cells [5]
  [Ca^2+ ]i response: inhibited by naloxone
In vitro
  viability at 10 µM: ≥ 96%
COS (Vector Control)
  cAMP: 31.4 fmoles/cell × 10^3
Jurkat cells; ^3 H-DADLE, ^3 H-DPDPE, ^3 H-U69,593
  reversal of agonist binding by naloxone: a portion of the binding of these highly selective opiate receptor agonists was reversed by naloxone
NALM 6 cells [6]
  effect of naloxone on MET-ENK(-FITC) binding: in the presence of naloxone this association is decreased; also recorded: blocked
NALM 6 cells [7]; 5 minutes at 37° C.
  morphological response (light scatter) of NALM 6 cells: inhibited by preincubation with naloxone
NALM 6 cells [7]; vs PBS alone
  baseline light scatter, naloxone alone: shifted the baseline measurement below that for the control
LAZ 221 cells
  effect on MET-ENK induction of CD9: totally blocked
Human T cells [8]
  human lymphocyte / T cell migration: blocked the T cell chemotaxis to MET-ENK
EBI1 [9]
  cAMP: 76.4 fmoles/cell × 10^3

## β-END: polypeptide β-endorphin
Human T cells [10]
  human T cell migration: potent stimulants for the migration of isolated human T cells
Human T cells [8]
  human lymphocyte / T cell migration: stimulate human lymphocyte migration
[11]
  sensitivity of binding to naloxone: insensitive to naloxone and not displaced by synthetic peptides containing MET-ENK residues
[12]
  lymphocyte and macrophage migration into ventricles: elicited lymphocyte and macrophage migration into the ventricles
PMN
  onset of PMN morphological response: ≤ 2 minutes
PBMC; PBMC
  blastogenic responses to T and B cell lectins: augment the blastogenic responses of PBMC to both T and B cell lectins
PBMC; lectin stimulated PBMC
  IFN-γ production: enhance IFN-γ production
